Results taken from the supplement of paper PMC10307832.

Assays:
Experiment in all cases: relative viability (nuclei count vs DMSO), 5 days (fraction); higher = more cells survive
[1] = compound: Cn1cc(-c2cnc3ccc4ccc(CS(=O)(=O)NCc5ccccn5)cc4c(=O)c3c2)cn1 [MK-8033] + O=C(CCCCCCC(=O)Nc1ccccc1)NO [Vorinostat] (partner 1 µM)
How it was run: (§1)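 Lung cancer cell lines were seeded in 1536-well plates and dosed by pin tool the next day, with either a single drug or a fixed anchor-drug dose combined with five library-drug doses (not always all listed) spaced in √10 steps. Five days later, one step fixed the cells and stained their nuclei (final 0.05% Triton X-100, 1% formaldehyde, 1 ug/ml Hoechst), and nuclei were counted on 4× images. Relative viability is the nuclei count in treated wells divided by the count in vehicle wells, and each value is the median of duplicate plates.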

[2] = compound: CC[C@@H](C)CNCC(=O)N1CCC2=C([C@@H]1COC3=CC=CC(=C3)C)C=CS2 [RU-SKI 43] + COc1cc2c(Oc3ccc(NC(=O)C4(C(=O)Nc5ccc(F)cc5)CC4)cc3F)ccnc2cc1OCCCN1CCOCC1 [Foretinib] (partner 0.25 µM)
How it was run: as §1

[3] = compound: CC[C@@H](C)CNCC(=O)N1CCC2=C([C@@H]1COC3=CC=CC(=C3)C)C=CS2 [RU-SKI 43] + CC(C)C[C@H](NC(=O)[C@H](Cc1ccccc1)NC(=O)c1cnccn1)B(O)O [Bortezomib] (partner 0.002 µM)
How it was run: as §1

[4] = compound: CCc1c2c(nc3ccc(OC(=O)N4CCC(N5CCCCC5)CC4)cc13)-c1cc3c(c(=O)n1C2)COC(=O)[C@]3(O)CC [Irinotecan] + Cc1cc(Nc2cc(N3CCN(C)CC3)nc(Sc3ccc(NC(=O)C4CC4)cc3)n2)n[nH]1 [Tozasertib] (partner 0.1 µM)
How it was run: as §1

Cell Line | relative viability ([1]; first compound 0.02 µM) | relative viability ([1]; first compound 0.06325 µM) | relative viability ([1]; first compound 0.2 µM) | relative viability ([1]; first compound 0.6325 µM) | relative viability ([1]; first compound 2 µM) | relative viability ([2]; first compound 0.1 µM) | relative viability ([2]; first compound 0.3162 µM) | relative viability ([2]; first compound 1 µM) | relative viability ([2]; first compound 3.162 µM) | relative viability ([2]; first compound 10 µM) | relative viability ([3]; first compound 0.1 µM) | relative viability ([3]; first compound 0.3162 µM) | relative viability ([3]; first compound 1 µM) | relative viability ([3]; first compound 3.162 µM) | relative viability ([3]; first compound 10 µM) | relative viability ([4]; first compound 2 µM) | relative viability ([4]; first compound 6.325 µM) | relative viability ([4]; first compound 20 µM) | relative viability ([4]; first compound 0.6325 µM)
HCC-15 | 0.898 | 0.767 | 0.752 | 0.738 | 0.798 | 1.1 | 1.17 | 1.16 | 1.11 | 1.04 | 1.12 | 1.28 | 1.2 | 1.08 | 1.11 | 0.332 | 0.164 | 0.151 | –
HCC-44 | 1.06 | 1.14 | 1.09 | 1.2 | 1.07 | – | – | – | – | – | 0.918 | 0.864 | 1 | 0.849 | 0.852 | 1.17 | 0.377 | 0.308 | –
HCC-78 | 0.401 | 0.399 | 0.539 | 0.262 | 0.455 | 0.541 | 0.6 | 0.592 | 0.591 | 0.479 | 0.505 | 0.495 | 0.484 | 0.471 | 0.427 | 0.356 | 0.21 | 0.0831 | 0.411
HCC-366 | 0.392 | 0.313 | 0.253 | 0.329 | 0.324 | 0.975 | 1.01 | 0.994 | 1.04 | 0.811 | 1.11 | 1.39 | 1.24 | 1.24 | 1.07 | 0.109 | 0.0553 | 0.0875 | 0.0963
IA-LM | 0.828 | 0.976 | 0.938 | 1.01 | 0.965 | 1.25 | 1.28 | 1.49 | 1.18 | 1.13 | 0.798 | 0.759 | 1.12 | 0.912 | 0.745 | – | – | – | –
LK-2 | 0.245 | 0.259 | 0.397 | 0.307 | 0.357 | 1.28 | 1.13 | 1.27 | 1.46 | 1.05 | – | – | – | – | – | 0.192 | 0.287 | 0.352 | 0.183
NCI-H358 | 0.79 | 0.503 | 0.579 | 0.712 | 0.614 | 0.631 | 0.749 | 0.829 | 0.776 | 0.489 | – | – | – | – | – | 0.141 | 0.145 | 0.128 | 0.104
NCI-H522 | 0.796 | 0.741 | 0.829 | 0.895 | 0.942 | – | – | – | – | – | – | – | – | – | – | 0.502 | 0.526 | 0.486 | 0.506
NCI-H1299 | – | – | – | – | – | 1.08 | 1.1 | 1.14 | 1.12 | 1.09 | 0.985 | 1.04 | 1.06 | 1.05 | 1.02 | – | – | – | –
NCI-H1395 | 0.673 | 0.673 | 0.638 | 0.654 | 0.692 | 0.865 | 0.985 | 1.05 | 1.01 | 1 | – | – | – | – | – | 0.716 | 0.594 | 0.494 | 0.607
NCI-H1563 | – | – | – | – | – | 0.918 | 0.985 | 0.957 | 0.855 | 0.755 | 0.882 | 0.828 | 0.888 | 0.797 | 0.797 | – | – | – | –
NCI-H1623 | – | – | – | – | – | 0.802 | 0.871 | 0.922 | 0.826 | 0.711 | – | – | – | – | – | 0.34 | 0.227 | 0.227 | 0.343
NCI-H1648 | 0.591 | – | 0.3 | 0.718 | 0.629 | – | – | – | – | – | – | – | – | – | – | 0.346 | 0.402 | 0.291 | 0.39
NCI-H1703 | – | – | – | – | – | 0.388 | 0.33 | 0.297 | 0.337 | 0.295 | 0.345 | 0.227 | 0.371 | 0.282 | 0.227 | – | – | – | –
NCI-H1792 | – | – | – | – | – | – | – | – | – | – | 0.961 | 1.29 | 1.31 | 1.03 | 0.941 | – | – | – | –
NCI-H1793 | 0.675 | – | 0.559 | 0.713 | 0.618 | 0.602 | 0.68 | 0.738 | 0.762 | 0.502 | – | – | – | – | – | 0.345 | 0.217 | 0.219 | –
NCI-H1944 | 0.6 | 0.579 | 0.625 | 0.59 | 0.568 | 0.812 | 0.878 | 0.918 | 1.01 | 0.819 | – | – | – | – | – | 0.202 | 0.167 | 0.135 | 0.222
NCI-H2170 | 0.802 | 0.882 | 0.691 | 0.768 | 0.79 | 0.994 | 1.13 | 1.07 | 1.09 | 0.975 | – | – | – | – | – | 0.701 | 0.236 | 0.181 | 0.801
NCI-H2342 | 0.859 | 0.728 | 0.643 | 0.79 | 0.731 | 0.967 | 1.09 | 1.01 | 1.06 | 1.02 | – | – | – | – | – | 0.528 | 0.445 | 0.372 | 0.488
SK-MES-1 | 1.2 | 0.987 | 1.03 | 1.04 | 1.03 | 1.09 | 1.04 | 0.97 | 1.1 | 0.907 | – | – | – | – | – | 0.473 | 0.248 | 0.151 | 0.659
SW 900 | 0.593 | 0.394 | 0.377 | 0.541 | 0.348 | 0.807 | 0.873 | 1.22 | 0.864 | 0.77 | – | – | – | – | – | 0.528 | 0.439 | 0.485 | 0.379
